Patent publication US3997527A, “Aminomethylarylmethylpenicillin derivatives” (Pfizer Inc., priority 1976, dated 1976)
Converted amounts (≈) assume the structure as drawn.

Columns and labels:
Type in all cases: cell-based
Kleb. pneumoniae 53A009 = assay: In vitro antibacterial activity (MIC), Kleb. pneumoniae 53A009; conditions: Klebsiella pneumoniae, nutrient broth
Excerpt: (§1) As has been previously mentioned, the penicillins of the present invention are broad spectrum antibiotics which are, unlike many penicillin analogs, highly antagonistic toward gram-negative microorganisms, in particular E. coli and Klebsiella. This unusual activity against certain gram-negative organisms may be attributed to the positioning of the aminomethyl substituent adjacent to the linking amide moiety. The marked effectiveness of this positioning can be readily seen in an antibacterial comparison of 6-(o-aminomethylphenylacetamido)penicillanic acid (o-AMP), a preferred compound of the present invention and 6-(p-aminomethylphenylacetamido)penicillanic acid (p-AMP), a compound of the previously-mentioned British Pat. 1,057,029.

Past. mult. 59A001 = assay: In vitro antibacterial activity (MIC), Past. mult. 59A001; conditions: nutrient broth
Excerpt: as §1

S. aureus 01A052 = assay: In vitro antibacterial activity (MIC), S. aureus 01A052; conditions: Staphylococcus aureus, nutrient broth
Excerpt: as §1

S. pyogenes 020803 = assay: In vitro antibacterial activity (MIC), S. pyogenes 020803; conditions: Streptococcus pyogenes, nutrient broth
Excerpt: as §1

Entero. aero. 55A004 = assay: In vitro antibacterial activity (MIC), Entero. aero. 55A004; conditions: nutrient broth
Excerpt: as §1

E. coli 51A002 = assay: In vitro antibacterial activity (MIC), E. coli 51A002; conditions: Escherichia coli, nutrient broth
Excerpt: as §1

E. coli 51A266 = assay: In vitro antibacterial activity (MIC), E. coli 51A266; conditions: Escherichia coli, nutrient broth
Excerpt: as §1

S. aureus 01A005 = assay: In vitro antibacterial activity (MIC), S. aureus 01A005; conditions: Staphylococcus aureus, nutrient broth
Excerpt: as §1

E. coli 51A215 = assay: In vitro antibacterial activity (MIC), E. coli 51A215; conditions: Escherichia coli, nutrient broth
Excerpt: as §1

Salm. typhm. 530013 = assay: In vitro antibacterial activity (MIC), Salm. typhm. 530013; conditions: nutrient broth
Excerpt: as §1

MIC (Kleb. pneumoniae 53A009) | MIC (Past. mult. 59A001) | MIC (S. aureus 01A052) | MIC (S. pyogenes 020803) | MIC (Entero. aero. 55A004) | MIC (E. coli 51A002) | MIC (E. coli 51A266) | MIC (S. aureus 01A005) | MIC (E. coli 51A215) | MIC (Salm. typhm. 530013) | SMILES
50 µg/mL (≈ 138 µM) | 0.39 µg/mL (≈ 1.07 µM) | 200 µg/mL (≈ 550 µM) | 0.39 µg/mL (≈ 1.07 µM) | > 200 µg/mL | > 200 µg/mL | 50 µg/mL (≈ 138 µM) | 200 µg/mL (≈ 550 µM) | 6.25 µg/mL (≈ 17.2 µM) | 12.5 µg/mL (≈ 34.4 µM) | CC1(C)S[C@@H]2C(NC(=O)Cc3ccc(CN)cc3)C(=O)N2[C@H]1C(=O)O (some centres unmarked) [p-AMP, 6-(p-aminomethylphenylacetamido)penicillanic acid]
3.12 µg/mL (≈ 8.58 µM) | 0.2 µg/mL (≈ 0.55 µM) | 1.56 µg/mL (≈ 4.29 µM) | < 0.1 µg/mL | 1.56 µg/mL (≈ 4.29 µM) | 200 µg/mL (≈ 550 µM) | 3.12 µg/mL (≈ 8.58 µM) | 0.2 µg/mL (≈ 0.55 µM) | 6.25 µg/mL (≈ 17.2 µM) | 3.12 µg/mL (≈ 8.58 µM) | CC1(C)S[C@@H]2C(NC(=O)Cc3ccccc3CN)C(=O)N2[C@H]1C(=O)O (some centres unmarked) [o-AMP, 6-(o-aminomethylphenylacetamido)penicillanic acid]
